In ChEMBL document CHEMBL5291721, “A preclinical secondary pharmacology resource illuminates target-adverse drug reaction associations of marketed drugs” (Nat Commun, 2023):

Tests used:
[1] = molecular target: T1, 5-hydroxytryptamine receptor 1A (Homo sapiens, UniProt P08908); assay type: functional, cell-based
T1 sequence (P08908 whole entry): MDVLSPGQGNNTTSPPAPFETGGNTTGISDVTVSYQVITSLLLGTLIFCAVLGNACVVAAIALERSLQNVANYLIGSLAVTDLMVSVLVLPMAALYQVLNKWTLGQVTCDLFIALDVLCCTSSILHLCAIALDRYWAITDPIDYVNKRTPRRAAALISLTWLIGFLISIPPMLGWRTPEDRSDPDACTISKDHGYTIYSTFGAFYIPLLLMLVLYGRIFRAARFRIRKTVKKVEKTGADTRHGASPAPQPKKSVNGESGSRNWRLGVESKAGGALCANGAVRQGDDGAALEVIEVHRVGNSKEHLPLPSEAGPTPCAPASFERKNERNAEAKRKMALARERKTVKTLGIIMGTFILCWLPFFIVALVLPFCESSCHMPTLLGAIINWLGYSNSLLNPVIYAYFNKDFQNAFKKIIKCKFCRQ

Endothelin-1 receptor = molecular target: T2, Endothelin-1 receptor (Homo sapiens, UniProt P25101)
T2 sequence (P25101 whole entry): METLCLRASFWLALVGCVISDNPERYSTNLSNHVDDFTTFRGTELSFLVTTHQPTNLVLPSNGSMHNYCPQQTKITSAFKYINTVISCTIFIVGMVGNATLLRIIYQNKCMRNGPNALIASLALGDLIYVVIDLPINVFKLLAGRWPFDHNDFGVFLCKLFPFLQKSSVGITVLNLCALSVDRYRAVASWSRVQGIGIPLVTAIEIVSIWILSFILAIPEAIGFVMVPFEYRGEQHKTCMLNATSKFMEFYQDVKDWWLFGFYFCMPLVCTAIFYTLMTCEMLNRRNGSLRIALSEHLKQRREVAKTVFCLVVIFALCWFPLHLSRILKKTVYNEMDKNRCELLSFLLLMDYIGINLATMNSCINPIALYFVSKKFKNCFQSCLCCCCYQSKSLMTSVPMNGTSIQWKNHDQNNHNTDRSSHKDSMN

Melanocortin receptor 3 = Melanocortin receptor 3 (Homo sapiens, UniProt P41968)
Chain of Melanocortin receptor 3 (P41968 whole entry): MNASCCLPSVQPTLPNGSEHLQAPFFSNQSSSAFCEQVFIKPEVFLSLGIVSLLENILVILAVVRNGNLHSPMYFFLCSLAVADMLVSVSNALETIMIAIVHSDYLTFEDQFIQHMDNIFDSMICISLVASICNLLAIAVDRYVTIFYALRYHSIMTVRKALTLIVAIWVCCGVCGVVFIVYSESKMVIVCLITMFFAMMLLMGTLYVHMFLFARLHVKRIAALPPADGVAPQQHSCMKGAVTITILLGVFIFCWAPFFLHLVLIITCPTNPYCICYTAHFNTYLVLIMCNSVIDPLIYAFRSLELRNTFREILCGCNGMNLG

[2] = molecular target: Growth hormone secretagogue receptor type 1 (Homo sapiens, UniProt Q92847)
Chain of Growth hormone secretagogue receptor type 1 (Q92847 whole entry): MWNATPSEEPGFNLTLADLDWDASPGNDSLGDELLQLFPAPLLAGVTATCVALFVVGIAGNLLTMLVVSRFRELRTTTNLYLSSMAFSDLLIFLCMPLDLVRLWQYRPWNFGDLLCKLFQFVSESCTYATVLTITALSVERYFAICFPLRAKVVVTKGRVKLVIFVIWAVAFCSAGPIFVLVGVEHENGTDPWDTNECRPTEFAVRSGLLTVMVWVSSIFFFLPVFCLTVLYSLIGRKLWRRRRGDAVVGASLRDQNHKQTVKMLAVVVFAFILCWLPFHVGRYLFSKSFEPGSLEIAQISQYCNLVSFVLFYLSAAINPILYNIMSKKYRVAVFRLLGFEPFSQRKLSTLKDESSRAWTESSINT

[3] = molecular target: Beta-2 adrenergic receptor (Homo sapiens, UniProt P07550); assay type: functional, cell-based
Chain of Beta-2 adrenergic receptor (P07550 whole entry): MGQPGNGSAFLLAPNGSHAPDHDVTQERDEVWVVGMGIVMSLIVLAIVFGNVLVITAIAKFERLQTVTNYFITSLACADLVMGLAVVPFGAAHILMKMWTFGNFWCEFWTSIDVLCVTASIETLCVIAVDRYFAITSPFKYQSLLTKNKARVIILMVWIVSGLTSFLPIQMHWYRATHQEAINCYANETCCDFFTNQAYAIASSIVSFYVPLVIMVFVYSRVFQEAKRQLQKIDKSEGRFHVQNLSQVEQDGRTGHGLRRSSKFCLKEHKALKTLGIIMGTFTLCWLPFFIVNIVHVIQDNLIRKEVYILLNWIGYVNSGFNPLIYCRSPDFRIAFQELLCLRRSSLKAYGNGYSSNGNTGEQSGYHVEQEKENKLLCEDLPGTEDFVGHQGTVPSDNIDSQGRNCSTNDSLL

Histamine H1 receptor = Histamine H1 receptor (Homo sapiens, UniProt P35367)
Chain of Histamine H1 receptor (P35367 whole entry): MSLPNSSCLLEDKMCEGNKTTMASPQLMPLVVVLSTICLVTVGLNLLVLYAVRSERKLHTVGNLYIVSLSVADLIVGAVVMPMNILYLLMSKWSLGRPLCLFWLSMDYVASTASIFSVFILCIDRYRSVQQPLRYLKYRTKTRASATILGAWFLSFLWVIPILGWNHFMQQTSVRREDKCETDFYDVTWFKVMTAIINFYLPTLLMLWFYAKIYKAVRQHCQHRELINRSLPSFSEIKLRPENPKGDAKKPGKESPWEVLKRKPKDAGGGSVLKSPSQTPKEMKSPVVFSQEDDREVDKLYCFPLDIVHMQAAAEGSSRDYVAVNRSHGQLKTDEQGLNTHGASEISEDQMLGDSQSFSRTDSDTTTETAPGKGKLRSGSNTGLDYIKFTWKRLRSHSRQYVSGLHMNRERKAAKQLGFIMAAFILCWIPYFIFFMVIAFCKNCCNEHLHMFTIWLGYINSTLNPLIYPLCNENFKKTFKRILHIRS

[4] = molecular target: T3, Muscarinic acetylcholine receptor M2 (Homo sapiens, UniProt P08172); assay type: functional, cell-based
T3 sequence (P08172 whole entry): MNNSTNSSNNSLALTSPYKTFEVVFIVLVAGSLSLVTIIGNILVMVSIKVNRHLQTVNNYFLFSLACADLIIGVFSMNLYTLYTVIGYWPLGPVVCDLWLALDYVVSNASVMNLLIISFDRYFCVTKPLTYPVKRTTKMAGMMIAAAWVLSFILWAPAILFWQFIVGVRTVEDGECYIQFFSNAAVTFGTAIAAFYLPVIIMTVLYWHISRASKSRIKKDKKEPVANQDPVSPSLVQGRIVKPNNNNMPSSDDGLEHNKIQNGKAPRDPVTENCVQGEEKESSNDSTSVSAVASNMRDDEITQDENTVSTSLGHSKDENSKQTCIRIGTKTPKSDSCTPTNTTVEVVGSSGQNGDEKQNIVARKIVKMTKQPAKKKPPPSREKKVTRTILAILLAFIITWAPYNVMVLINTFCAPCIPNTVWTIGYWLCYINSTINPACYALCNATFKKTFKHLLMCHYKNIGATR

Cannabinoid receptor 1 [5] = molecular target: T4, Cannabinoid receptor 1 (Homo sapiens, UniProt P21554); assay type: functional, cell-based
T4 sequence (P21554 whole entry): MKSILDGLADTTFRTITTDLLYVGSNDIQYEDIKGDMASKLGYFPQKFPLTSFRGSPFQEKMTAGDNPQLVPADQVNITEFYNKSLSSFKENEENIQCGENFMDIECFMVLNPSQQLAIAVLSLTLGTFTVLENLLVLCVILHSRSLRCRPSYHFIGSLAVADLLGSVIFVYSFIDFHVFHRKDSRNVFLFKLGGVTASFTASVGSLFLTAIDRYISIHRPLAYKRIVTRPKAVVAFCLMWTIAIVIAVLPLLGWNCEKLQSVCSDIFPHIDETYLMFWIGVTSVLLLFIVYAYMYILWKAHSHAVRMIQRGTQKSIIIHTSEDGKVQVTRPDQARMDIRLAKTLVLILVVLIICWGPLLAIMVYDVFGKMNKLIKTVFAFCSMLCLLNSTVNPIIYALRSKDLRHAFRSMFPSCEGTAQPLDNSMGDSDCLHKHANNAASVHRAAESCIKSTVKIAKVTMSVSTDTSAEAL

[6] = molecular target: T5, Amine oxidase [flavin-containing] A (Homo sapiens, UniProt P21397); assay type: functional
T5 sequence (P21397 whole entry): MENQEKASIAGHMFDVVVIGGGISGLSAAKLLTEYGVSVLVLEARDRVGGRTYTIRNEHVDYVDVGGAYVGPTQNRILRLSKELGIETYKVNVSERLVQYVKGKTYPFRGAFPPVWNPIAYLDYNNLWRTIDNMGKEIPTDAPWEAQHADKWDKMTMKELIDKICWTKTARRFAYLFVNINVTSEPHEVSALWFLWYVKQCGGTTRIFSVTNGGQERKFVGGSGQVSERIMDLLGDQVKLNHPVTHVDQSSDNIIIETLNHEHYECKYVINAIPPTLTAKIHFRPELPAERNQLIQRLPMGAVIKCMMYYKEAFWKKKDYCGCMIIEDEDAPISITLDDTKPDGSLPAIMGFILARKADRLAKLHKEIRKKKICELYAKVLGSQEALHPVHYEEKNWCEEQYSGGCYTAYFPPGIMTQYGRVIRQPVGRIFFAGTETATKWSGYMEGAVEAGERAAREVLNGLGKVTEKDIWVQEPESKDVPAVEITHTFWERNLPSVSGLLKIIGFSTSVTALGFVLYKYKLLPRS

Cannabinoid receptor 1 [7] = molecular target: T4, Cannabinoid receptor 1; assay type: functional, cell-based; remark: listed apart in the source
[8] = molecular target: Sodium-dependent dopamine transporter (Homo sapiens, UniProt Q01959)
Chain of Sodium-dependent dopamine transporter (Q01959 whole entry): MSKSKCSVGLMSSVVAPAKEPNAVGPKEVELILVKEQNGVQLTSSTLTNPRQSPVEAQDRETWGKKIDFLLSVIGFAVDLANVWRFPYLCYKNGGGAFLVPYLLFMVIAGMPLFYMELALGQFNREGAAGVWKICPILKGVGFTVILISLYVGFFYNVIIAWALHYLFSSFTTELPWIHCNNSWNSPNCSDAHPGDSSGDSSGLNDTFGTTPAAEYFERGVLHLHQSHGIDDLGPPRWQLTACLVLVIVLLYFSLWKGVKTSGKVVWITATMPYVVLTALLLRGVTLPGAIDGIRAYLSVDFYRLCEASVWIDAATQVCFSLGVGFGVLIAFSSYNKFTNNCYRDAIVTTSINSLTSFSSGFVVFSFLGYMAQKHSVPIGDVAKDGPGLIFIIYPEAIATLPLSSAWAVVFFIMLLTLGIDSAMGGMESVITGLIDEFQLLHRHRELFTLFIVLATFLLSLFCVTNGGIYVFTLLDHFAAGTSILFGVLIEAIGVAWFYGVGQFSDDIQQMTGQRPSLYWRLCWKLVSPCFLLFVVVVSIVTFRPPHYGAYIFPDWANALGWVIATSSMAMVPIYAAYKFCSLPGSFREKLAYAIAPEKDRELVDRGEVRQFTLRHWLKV

[9] = molecular target: 5-hydroxytryptamine receptor 2A (Homo sapiens, UniProt P28223); assay type: functional, cell-based
Chain of 5-hydroxytryptamine receptor 2A (P28223 whole entry): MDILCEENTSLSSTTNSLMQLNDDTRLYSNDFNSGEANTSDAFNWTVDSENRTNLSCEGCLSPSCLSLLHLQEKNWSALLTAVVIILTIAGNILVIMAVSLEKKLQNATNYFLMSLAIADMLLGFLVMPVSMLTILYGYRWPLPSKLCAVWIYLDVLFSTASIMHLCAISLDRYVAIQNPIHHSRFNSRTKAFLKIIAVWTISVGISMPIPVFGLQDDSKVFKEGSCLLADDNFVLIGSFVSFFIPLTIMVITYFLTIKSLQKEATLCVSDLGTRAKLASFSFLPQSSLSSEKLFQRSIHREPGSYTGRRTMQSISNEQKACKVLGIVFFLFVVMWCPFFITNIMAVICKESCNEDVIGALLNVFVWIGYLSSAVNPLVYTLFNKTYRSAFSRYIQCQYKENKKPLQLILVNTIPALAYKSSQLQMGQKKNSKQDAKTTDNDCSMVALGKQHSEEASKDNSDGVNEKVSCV

[10] = molecular target: T6, Alpha-1A adrenergic receptor (Homo sapiens, UniProt P35348)
T6 sequence (P35348 whole entry): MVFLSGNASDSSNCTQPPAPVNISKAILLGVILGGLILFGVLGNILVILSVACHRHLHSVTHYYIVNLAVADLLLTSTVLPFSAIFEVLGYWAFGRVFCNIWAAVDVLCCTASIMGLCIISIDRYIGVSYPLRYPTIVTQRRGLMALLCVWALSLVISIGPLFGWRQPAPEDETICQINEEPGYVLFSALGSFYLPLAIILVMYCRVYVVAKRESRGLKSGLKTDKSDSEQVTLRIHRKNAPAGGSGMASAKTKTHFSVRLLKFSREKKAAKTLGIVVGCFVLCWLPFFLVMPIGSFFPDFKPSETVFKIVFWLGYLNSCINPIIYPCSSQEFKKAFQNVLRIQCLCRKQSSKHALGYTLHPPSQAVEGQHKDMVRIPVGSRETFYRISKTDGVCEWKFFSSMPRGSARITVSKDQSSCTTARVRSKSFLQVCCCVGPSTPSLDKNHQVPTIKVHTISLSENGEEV

Melanocortin receptor 4 = Melanocortin receptor 4 (Homo sapiens, UniProt P32245)
Chain of Melanocortin receptor 4 (P32245 whole entry): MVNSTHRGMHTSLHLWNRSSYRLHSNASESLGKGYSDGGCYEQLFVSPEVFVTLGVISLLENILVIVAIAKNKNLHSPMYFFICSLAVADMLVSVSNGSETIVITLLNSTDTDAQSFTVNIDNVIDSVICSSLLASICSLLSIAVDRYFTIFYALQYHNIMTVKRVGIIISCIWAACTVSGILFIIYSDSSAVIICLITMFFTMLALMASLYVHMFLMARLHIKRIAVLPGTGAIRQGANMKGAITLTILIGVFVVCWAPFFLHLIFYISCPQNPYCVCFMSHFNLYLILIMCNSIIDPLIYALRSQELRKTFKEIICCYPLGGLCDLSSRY

Cannabinoid receptor 1 [11] = molecular target: T4, Cannabinoid receptor 1
Note: assay procedure not described here.

Compound | AC50 [1] | AC50 (Endothelin-1 receptor) | AC50 (Melanocortin receptor 3) | AC50 [2] | AC50 [3] | AC50 (Histamine H1 receptor) | AC50 [4] | AC50 (Cannabinoid receptor 1 [5]) | AC50 [6] | AC50 (Cannabinoid receptor 1 [7]) | AC50 [8] | AC50 [9] | AC50 [10] | AC50 (Melanocortin receptor 4) | AC50 (Cannabinoid receptor 1 [11])
CCC(COC(=O)c1cc(OC)c(OC)c(OC)c1)(c1ccccc1)N(C)C (stereo not drawn) [TRIMEBUTINE] | > 30 µM | > 30 µM | > 30 µM | > 30 µM | > 30 µM | > 30 µM | > 30 µM | > 30 µM | > 30 µM | > 30 µM | 27 µM | > 30 µM |  |  | 
CCCCCC(=O)O[C@]1(C(C)=O)CC[C@H]2[C@@H]3CCC4=CC(=O)CC[C@]4(C)[C@H]3CC[C@@]21C [HYDROXYPROGESTERONE CAPROATE] |  |  | > 30 µM | > 30 µM | > 30 µM | > 30 µM | > 30 µM | > 30 µM | > 30 µM | > 30 µM | 21.3 µM | > 30 µM | > 30 µM | > 30 µM | > 30 µM
O=C1CN=C(c2ccccn2)c2cc(Br)ccc2N1 [BROMAZEPAM] | > 10 µM |  | > 10 µM | > 10 µM | > 30 µM | > 10 µM | > 10 µM |  | > 10 µM | > 30 µM | > 10 µM | > 10 µM | > 10 µM | > 10 µM | > 10 µM
